From paper PMC9227586, “UHPLC-MS Metabolomic Fingerprinting, Antioxidant, and Enzyme Inhibition Activities of Himantormia lugubris from Antarctica” (Metabolites, 2022)
Like-named read-outs stand apart in the source and are kept apart here. Marks after values point to notes of the source that are not given here.

Assays:
DPPH scavenging activity = conditions: bleaching of DPPH at 515 nm after 30 min
Protocol: The potential bleaching of the radical DPPH, using a Synergy HTX microplate reader, was determined by mixing 50 µL of extract or standard with 150 µL of DPPH solution; the determinations were made in triplicate by monitoring the bleaching of DPPH at 515 nm after 30 min of reaction. The results are expressed as IC50 in µg of standard or extract per mL. The data are reported as the mean ± SD.

[1] = Ferric-reducing antioxidant power assay (FRAP); conditions: absorbance at 593 nm after 5 min
Protocol: The FRAP test was performed as described previously. A standard curve of the antioxidant Trolox was plotted, then the measurement was performed with 290 µL of extract and its absorbance was measured at 593 nm after 5 min. The results were expressed in mg of Trolox equivalent per g of dry lichen. The experiments were performed in triplicate and the values are expressed as the mean ± SD.

[2] = Oxygen radical absorbance capacity (ORAC) assay
Protocol: The ORAC assay was performed as previously described. Quantification was performed using a standard curve of the antioxidant Trolox, then the measurement was performed using a solution of the Trolox, blank, and 40 µL of extract in different wells of the microplate reader. The results were obtained by constructing the equations (Trolox/samples vs. fluorescence decay curves) and expressed in μmol Trolox equivalents per grams of dry lichen. The tests were performed in triplicate and the results are reported as the mean ± SD.

[3] = target: T1, acetylcholinesterase (AChE, EC 3.1.1.7) (Homo sapiens, UniProt P22303); test: biochemical; conditions: 37 °C
T1 construct: purchased Sigma (St. Louis, MO, USA)
Protocol: (§1) Inhibition of AChE activity was determined according to the Ellman method, as previously reported. The samples (2 mg/mL) were prepared by mixing tris-HCl buffer (50 mM, pH 8.0), enzyme solution (AChE or BChE), and 5-dithio-bis (2-nitrobenzoic acid) (DTNB) at pH 8.0. The reaction was started by adding acetyl-thiocholine iodide (ATCI) or butyryl-thiocholine chloride (BTCl). The absorbance of the extract was measured at 405 nm for 30 min at 37 °C. Three experiments were performed in triplicate in each test and the values are reported as the mean ± SD. The results were expressed as IC50 (µg/mL, the final concentration of the plate ranged from 0.05 to 25 μg/mL).

[4] = target: T2, butyrylcholinesterase (BChE, EC 3.1.1.8) (Homo sapiens, UniProt P06276); test: biochemical
T2 construct: purchased Sigma (St. Louis, MO, USA)
Protocol: as §1

tyrosinase = conditions: cited from earlier work
AChE = conditions: cited from earlier work
BChE = conditions: cited from earlier work
[5] = Ellman method, read-out: AChE IC50 (converted)
[6] = Ellman method, 37 °C, read-out: BChE IC50 (converted)

T2 sequence (P06276 29-602): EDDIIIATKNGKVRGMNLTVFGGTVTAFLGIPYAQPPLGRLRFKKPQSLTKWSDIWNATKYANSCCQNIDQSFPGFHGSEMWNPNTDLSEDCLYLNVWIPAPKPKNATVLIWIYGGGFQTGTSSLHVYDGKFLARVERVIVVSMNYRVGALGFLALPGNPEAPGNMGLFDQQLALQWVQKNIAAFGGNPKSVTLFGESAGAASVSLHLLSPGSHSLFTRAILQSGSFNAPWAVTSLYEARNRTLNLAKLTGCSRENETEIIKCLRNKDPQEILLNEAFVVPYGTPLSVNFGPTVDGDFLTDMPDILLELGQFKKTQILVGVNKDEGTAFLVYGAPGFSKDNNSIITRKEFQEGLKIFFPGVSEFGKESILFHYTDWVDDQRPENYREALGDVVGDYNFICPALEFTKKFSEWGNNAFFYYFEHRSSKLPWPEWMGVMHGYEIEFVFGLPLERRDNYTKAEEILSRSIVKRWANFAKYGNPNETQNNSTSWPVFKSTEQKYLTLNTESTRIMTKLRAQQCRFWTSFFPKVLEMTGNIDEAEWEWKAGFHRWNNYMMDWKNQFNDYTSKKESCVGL
T1 sequence (P22303 32-614, species assumed): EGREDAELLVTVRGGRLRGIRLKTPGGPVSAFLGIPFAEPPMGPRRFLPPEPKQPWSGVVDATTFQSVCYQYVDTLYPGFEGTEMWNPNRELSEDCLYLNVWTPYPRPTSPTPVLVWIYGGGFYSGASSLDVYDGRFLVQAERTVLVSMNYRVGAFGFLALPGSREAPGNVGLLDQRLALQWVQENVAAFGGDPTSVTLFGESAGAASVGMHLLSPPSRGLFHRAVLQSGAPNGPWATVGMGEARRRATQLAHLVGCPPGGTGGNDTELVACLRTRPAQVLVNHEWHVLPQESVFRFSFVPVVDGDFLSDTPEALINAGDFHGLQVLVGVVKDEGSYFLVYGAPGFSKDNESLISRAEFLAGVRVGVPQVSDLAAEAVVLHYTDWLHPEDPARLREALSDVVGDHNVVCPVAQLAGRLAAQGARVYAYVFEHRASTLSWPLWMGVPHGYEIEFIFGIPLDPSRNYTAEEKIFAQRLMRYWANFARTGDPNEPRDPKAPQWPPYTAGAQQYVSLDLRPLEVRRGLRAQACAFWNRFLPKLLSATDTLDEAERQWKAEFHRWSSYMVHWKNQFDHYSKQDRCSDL

Cc1c(O)cc2c(c1O)C(=O)OC2 [5,7-dihydroxy-6-methylphthalide]
DPPH antiradical activity (IC50) (DPPH scavenging activity): 12.52 ± 0.02 µg/mL
FRAP [1]: 36.91 ± 0.0 μmol Trolox/g lichen
ORAC [2]: 373.65 ± 1.05 μmol Trolox/g lichen
IC50 [3, 5]: 70.5 µM
IC50 [4, 6]: 108 µM

CC(=O)C1=C(O)C=C2Oc3c(C(C)=O)c(O)c(C)c(O)c3[C@@]2(C)C1=O [(+) usnic acid]
tyrosinase inhibition (tyrosinase; at the dose of 250 μg/mL): 9.1%

Cc1cc(O)c(C=O)c(O)c1 [Atranol, atranol]
DPPH antiradical activity (IC50) (DPPH scavenging activity): 21.04 ± 0.02 µg/mL
FRAP [1]: 29.32 ± 0.0 ^a μmol Trolox/g lichen
ORAC [2]: 176.28 ± 0.84 μmol Trolox/g lichen
IC50 [3, 5]: 189 µM
IC50 [4, 6]: 239 µM

Cc1cc(O)c(C=O)c(O)c1C(=O)OCc1cc(O)c(C=O)c(O)c1C(=O)O [Barbatolic acid, barbatolic acid]
DPPH antiradical activity (IC50) (DPPH scavenging activity): 62.55 ± 0.01 µg/mL
FRAP [1]: 28.10 ± 0.0 ^a μmol Trolox/g lichen
ORAC [2]: 101.11 ± 0.71 μmol Trolox/g lichen
IC50 [3, 5]: 44.6 µM
IC50 [4, 6]: 61.4 µM

O=C(O)c1cc(O)c(O)c(O)c1 [Gallic acid, reference compound]
DPPH antiradical activity (IC50) (DPPH scavenging activity): 2.24 ± 0.04 µg/mL
FRAP [1]: 45.5 ± 0.00 μmol Trolox/g lichen

CC(=O)c1c(O)c(C)c(O)c2c1OC1=CC(=O)C(C(C)=O)C(=O)C12C (stereo not drawn) [Usnic acid]
DPPH antiradical activity (IC50) (DPPH scavenging activity): 55.25 ± 0.04 µg/mL
IC50 (AChE; reported previously): 1.27 nM
FRAP [1]: 22.4 ± 0.00 μmol Trolox/g lichen
ORAC [2]: 122.73 ± 1.0 μmol Trolox/g lichen
IC50 (BChE; reported previously): 3.4 nM
IC50 ([3]; AChE IC50, Ellman method): 6.42 µM
IC50 [4]: 12.7 µM

Cc1cc(O)c(C=O)c2c1C(=O)Oc1c(COC(=O)/C=C/C(=O)O)c(O)c(C(=O)O)c(C)c1O2 [fumarprotocetraric acid]
inhibition of tyrosinase activity (tyrosinase; at 0.6 mM): 39.8%

C[C@@H]1O[C@@H](O[C@@H]2C(=O)c3c(O)cc(O)cc3O[C@@H]2c2ccc(O)c(O)c2)[C@H](O)[C@H](O)[C@H]1O [isoastilbin]
AChE inhibition (AChE; at 2.2 µM): 51.70%
BChE inhibition (BChE; at 2.2 µM): 50.10%

Cc1cc(OC(=O)c2c(C)cc(O)cc2O)cc(O)c1C(=O)O [lecanoric acid]
inhibition of tyrosinase activity (tyrosinase): 82.69%

Cc1cc(O)cc(O)c1C(=O)O [orsellinic acid, 2,4-dihydroxy-6-methylbenzoic acid]
inhibition of tyrosinase activity (tyrosinase): 63.35%
